From patent US8765138B2 (priority 2004, dated 2014)
Converted amounts (≈) assume the structure as drawn.

Experiments:
[1] = tested on: Flu A H3N2 Wisconsin 67/2005; experiment: microbe, parasite or virus in culture; format: cell-based; conditions: Influenza A virus, H3N2, MDCK, read-out: Control EC50
MDCK cell line = experiment: cells; format: cell-based; conditions: for Control IC50: ribavirin control, with Flu A H5N1

For `NC(=O)c1ncn([C@@H]2O[C@H](CO)[C@@H](O)[C@H]2O)n1` [RIBAVARIN, Ribavirin], the EC50 [1] was 1.9 µg/mL (≈ 7.78 µM), the IC50 (MDCK cell line; Canis lupus familiaris, MDCK, read-out: Control IC50) was greater than 320 µg/mL and the “Control IC50” value (MDCK cell line; Neutral Red) was greater than 320 µg/mL. For the same compound, the “Control IC50” value (MDCK cell line; Visual) was greater than 320 µg/mL.
